Experimental data reported in US6444612B1, “Use of 5-amino-pyrazol-derivatives for combating micro-organisms” (Bayer Aktiengesellschaft, priority 1998, dated 2002).
Each block holds one molecule with its values, some of them ahead of it.

Legend:
Podosphaera leucotricha = experiment: Podosphaera test (apple)/protective; format: in vivo; conditions: protective, application rate 100 g/ha, evaluation 10 days after inoculation, 100% = no infection
Method: Podosphaera Test (Apple)/Protective
(§1) Solvent: 47 parts by weight of acetone
(§2) Emulsifier: 3 parts by weight of alkylaryl polyglycol ether
(§3) To produce a suitable preparation of active compound, 1 part by weight of active compound is mixed with the stated amounts of solvent and emulsifier, and the concentrate is diluted with water to the desired concentration.
(§4) To test for protective activity, young plants are sprayed with the preparation of active compound at the stated application rate. After the spray coating has dried on, the plants are inoculated with an aqueous spore suspension of the apple mildew pathogen Podosphaera leucotricha. The plants are then placed in a greenhouse at about 23° C. and a relative atmospheric humidity of about 70%.
Evaluation is carried out 10 days after the inoculation. 0% means an efficacy which corresponds to that of the control, whereas an efficacy of 100% means that no infection is observed.

[1] = system: Erysiphe graminis f.sp. tritici; experiment: Erysiphe test (wheat)/protective; format: in vivo; conditions: protective, application rate 250 g/ha, evaluation 7 days after inoculation, 100% = no infection
Method: Erysiphe Test (Wheat)/Protective
(§5) Solvent: 25 parts by weight of N,N-dimethylacetamide
Emulsifier: 0.6 part by weight of alkylaryl polyglycol ether
as §3
To test for protective activity, young plants are sprayed with the preparation of active compound at the stated application rate.
After the spray coating has dried on, the plants are dusted with spores of Erysiphe graminis f.sp. tritici.
The plants are placed in a greenhouse at a temperature of about 20° C. and a relative atmospheric humidity of about 80% to promote the development of mildew pustules.
(§6) Evaluation is carried out 7 days after the inoculation. 0% means an efficacy which corresponds to that of the control, whereas an efficacy of 100% means that no infection is observed.

Pyrenophora teres = Pyrenophora teres test (barley)/curative; format: in vivo; conditions: curative, application rate 250 g/ha, evaluation 7 days after inoculation, 100% = no infection
Method: Pyrenophora Teres Test (Barley)/Curative
as §5
Emulsifier: 0.6 parts by weight of alkylaryl polyglycol ether
as §3
To test for curative activity, young plants are sprayed with a conidia suspension of Pyrenophora teres. The plants remain in an incubation cabin at 20° C. and 100% relative atmospheric humidity for 48 hours. The plants are then sprayed with the preparation of active compound at the stated application rate.
The plants are placed in a greenhouse at a temperature of about 20° C. and a relative atmospheric humidity of about 80%.
as §6

Sphaerotheca fuliginea = experiment: Sphaerotheca test (cucumber)/protective; format: in vivo; conditions: protective, application rate 100 g/ha, evaluation 10 days after inoculation, 100% = no infection
Method: Sphaerotheca Test (Cucumber)/Protective
as §1, §2, §3
as §4, with “Sphaerotheca fuliginea.” for “the apple mildew pathogen Podosphaera leucotricha.”
Evalution is carried out 10 days after the inoculation. 0% means an efficacy which corresponds to that of the control, whereas an efficacy of 100% means that no infection is observed.

Structure (SMILES): CCOC(=O)c1c(CC)nn(C)c1NC(=O)Cc1ccc(-c2ccc(OC(F)(F)F)cc2)cc1 [drawing 285]
Efficacy in % (Podosphaera leucotricha): 100%

Structure (SMILES): CCOC(=O)c1c(CC)nn(C)c1NC(=O)Cc1cccc(Oc2ccc(OC(F)(F)F)cc2)c1 [drawing 284]
Efficacy in % (Podosphaera leucotricha): 92%

Structure (SMILES): CCOC(=O)c1c(CC)nn(C)c1NC(=O)Cc1cccc(Oc2ccc(Cl)cc2)c1 [drawing 282]
Efficacy in % [1]: 100%

melting point: 112 to 113 °C
Structure (SMILES): CCOC(=O)c1c(CC)nn(C)c1NC(=O)Cc1ccc(OC)cc1 [Example 1, 4-ethoxycarbonyl-3-ethyl-5-(4-methoxyphenylacetyl)-amino-1-methylpyrazole]

Structure (SMILES): CCOC(=O)c1c(CC)nn(C)c1NC(=O)Cc1cccc(Oc2ccc(Cl)cc2)c1 [drawing 283]
Efficacy in % (Pyrenophora teres): 100%

Structure (SMILES): CCOC(=O)c1c(CC)nn(C)c1NC(=O)Cc1ccc(-c2ccc(OC(F)(F)F)cc2)cc1 [drawing 287]
Efficacy in % (Sphaerotheca fuliginea): 100%

Structure (SMILES): CCc1nn(C)c(NC(=O)Cc2ccc(-c3ccc(OC(F)(F)F)cc3)cc2)c1Cl [drawing 286]
Efficacy in % (Podosphaera leucotricha): 100%

Structure (SMILES): CCc1nn(C)c(NC(=O)Cc2ccc(-c3ccc(OC(F)(F)F)cc3)cc2)c1Cl [drawing 288]
Efficacy in % (Sphaerotheca fuliginea): 100%

melting point: 167 to 168 °C
Structure (SMILES): CCc1nn(C)c(NC(=O)Cc2ccc(Br)cc2)c1Cl [Example 5, 5-(4-bromophenylacetyl)-amino-4-chloro-3-ethyl-1-methylpyrazole]
